# Results taken from ChEMBL document CHEMBL1128710, “Synthesis of cluster galactosides with high affinity for the hepatic asialoglycoprotein receptor” (J Med Chem, 1995).
# Assay: Affinity towards Asialoglycoprotein receptor using in vitro competition assay for [125I]- ASOR binding to the parenchymal liver cells of rabbit
# Parameters: species or system Oryctolagus cuniculus
row,SMILES,Ki [µM]
1,COC(=O)CCCCC(=O)NCC(=O)NC(CO[C@@H]1O[C@H](CO)[C@H](O)[C@H](O)[C@H]1O)(CO[C@@H]1O[C@H](CO)[C@H](O)[C@H](O)[C@H]1O)CO[C@@H]1O[C@H](CO)[C@H](O)[C@H](O)[C@H]1O,150

# Assay: Affinity towards Asialoglycoprotein receptor using in vitro competition assay for [125I]- ASOR binding to the parenchymal liver cells of rat
row,SMILES,Ki [µM]
1,COC(=O)CCCCC(=O)NCC(=O)NC(COCOCCCO[C@@H]1O[C@H](CO)[C@H](O)[C@H](O)[C@H]1O)(COCOCCCO[C@@H]1O[C@H](CO)[C@H](O)[C@H](O)[C@H]1O)COCOCCCO[C@@H]1O[C@H](CO)[C@H](O)[C@H](O)[C@H]1O,1.2
2,CC(C)CCC[C@@H](C)[C@H]1CC[C@H]2[C@@H]3CC=C4C[C@@H](OC(=O)CCC(=O)NCC(=O)NC(CO[C@@H]5O[C@H](CO)[C@H](O)[C@H](O)[C@H]5O)(CO[C@@H]5O[C@H](CO)[C@H](O)[C@H](O)[C@H]5O)CO[C@@H]5O[C@H](CO)[C@H](O)[C@H](O)[C@H]5O)CC[C@]4(C)[C@H]3CC[C@]12C,14
3,COC(=O)CCCCC(=O)NCC(=O)NC(COCOCCO[C@@H]1O[C@H](CO)[C@H](O)[C@H](O)[C@H]1O)(COCOCCO[C@@H]1O[C@H](CO)[C@H](O)[C@H](O)[C@H]1O)COCOCCO[C@@H]1O[C@H](CO)[C@H](O)[C@H](O)[C@H]1O,19
4,COC(=O)CCCCC(=O)NCC(=O)NC(COCOCCOCCO[C@@H]1O[C@H](CO)[C@H](O)[C@H](O)[C@H]1O)(COCOCCOCCO[C@@H]1O[C@H](CO)[C@H](O)[C@H](O)[C@H]1O)COCOCCOCCO[C@@H]1O[C@H](CO)[C@H](O)[C@H](O)[C@H]1O,11
5,COC(=O)CCCCC(=O)NCC(=O)NC(COCOCCOCCOCCOCCO[C@H]1O[C@@H](CO)[C@@H](O)[C@@H](O)[C@@H]1O)(COCOCCOCCOCCOCCO[C@H]1O[C@@H](CO)[C@@H](O)[C@@H](O)[C@@H]1O)COCOCCOCCOCCOCCO[C@H]1O[C@@H](CO)[C@@H](O)[C@@H](O)[C@@H]1O,0.2
6,COC(=O)CCCCC(=O)NCC(=O)NC(CO[C@@H]1O[C@H](CO)[C@H](O)[C@H](O)[C@H]1O)(CO[C@@H]1O[C@H](CO)[C@H](O)[C@H](O)[C@H]1O)CO[C@@H]1O[C@H](CO)[C@H](O)[C@H](O)[C@H]1O,> 390
7,CC(=O)N[C@@H]1[C@@H](O)[C@@H](O)[C@@H](CO)O[C@H]1O,870
